Measurements taken from PubChem BioAssay (NCI).
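Compound exposure: 48 hours, 5 concentrations, 96-well plates. Here, GI50 denotes the concentration required for 50% inhibition of growth. TGI denotes the concentration required for complete inhibition of growth.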

Key:
Assay in all cases: NCI tumour cell line growth inhibition, 48 h
OVCAR-4 ovarian = tested on: OVCAR-4 ovarian
HOP-62 NSCLC = tested on: HOP-62 NSCLC
SF-539 CNS = tested on: SF-539 CNS
SR leukemia = tested on: SR leukemia
SK-OV-3 ovarian = tested on: SK-OV-3 ovarian
EKVX NSCLC = tested on: EKVX NSCLC
NCI-H226 lung = tested on: NCI-H226 lung
RPMI-8226 leukemia = tested on: RPMI-8226 leukemia
U251 CNS = tested on: U251 CNS
HCT-15 colon = tested on: HCT-15 colon

Compound	TGI (OVCAR-4 ovarian) [µM]	TGI (HOP-62 NSCLC) [µM]	TGI (SF-539 CNS) [µM]	TGI (SR leukemia) [µM]	TGI (SK-OV-3 ovarian) [µM]	TGI (EKVX NSCLC) [µM]	TGI (NCI-H226 lung)	TGI (RPMI-8226 leukemia)	TGI (U251 CNS) [µM]	TGI (HCT-15 colon) [µM]	GI50 (OVCAR-4 ovarian) [µM]	GI50 (HOP-62 NSCLC) [µM]	GI50 (RPMI-8226 leukemia) [µM]	GI50 (SF-539 CNS) [µM]	GI50 (U251 CNS) [µM]	GI50 (HCT-15 colon) [µM]	GI50 (SK-OV-3 ovarian) [µM]	GI50 (EKVX NSCLC) [µM]	GI50 (NCI-H226 lung) [µM]	GI50 (SR leukemia) [µM]
COC(=O)C1(C)CC2C(C)(CCC3(C)C4=CC=C5C(=CC(=O)C(O)=C5C)C4(C)CCC23C)CC1O (configuration not stated)	3.4	3.51	3.3	0.575	4.13	2.7	4.46 µM	–	–	–	–	–	–	–	–	–	–	–	–	–
O=C(O)c1c(Cl)c(Cl)c(Cl)c(Cl)c1C(=O)Nc1ccc2cn[nH]c2c1	> 100	> 100	> 100	–	> 100	> 100	> 100 µM	> 100 µM	> 100	> 100	–	–	–	–	–	–	–	–	–	–
COc1ccc2nc(-c3ccccc3)cc(Nc3cccc(C(C)=O)c3)c2c1	62.8	4.88	3.66	–	56.5	34.3	34.3 µM	> 100 µM	16.8	22.1	7.05	2.08	33.2	1.67	1.96	4.93	19.7	13.6	16.1	–
CCCCCCCCCCCCCCCCCCOc1ccccc1CC(=O)OCC[N+](CC)(CC)CC	7.42	8.32	5.82	–	12.1	8.44	5.64 µM	–	3.56	13.1	1.75	1.76	–	1.62	1.24	4.39	3	2.15	1.27	–
CCOc1ccc2c(c1)CN(Cc1ccc(Cl)cc1)CO2	50.3	> 100	32.4	63.7	> 100	–	> 100 µM	46.4 µM	33.2	34.1	19.8	26.2	19.9	15.8	16.1	16.5	29.8	–	30.3	15.6
CC(=O)OC(C)(C)/C=C/C(=O)[C@](C)(O)[C@H]1[C@H](O)C[C@@]2(C)[C@@H]3CC=C4[C@@H](C=C(O)C(=O)C4(C)C)[C@]3(C)C(=O)C[C@]12C	–	–	–	–	–	–	93.7 nM [middle of 4 runs]	771 nM [middle of 4 runs]	–	–	–	–	–	–	–	–	–	–	–	–
CCOc1ccc(OCC)c([P+](c2ccccc2)(c2ccccc2)c2ccccc2)c1	29	3.92	8.77	–	–	16.5	3.24 µM	2.36 µM	10.8	–	–	–	–	–	–	–	–	–	–	–
CC(=O)[CH-]C(=O)c1ccccc1.CC(=O)[CH-]C(=O)c1ccccc1.CC(C)CCC[C@H](C)C1CCC2[C@@H]3CC=C4C[C@@H]([O-])CC[C@]4(C)C3CC[C@@]21C.CC(C)CCC[C@H](C)C1CCC2[C@@H]3CC=C4C[C@@H]([O-])CC[C@]4(C)C3CC[C@@]21C.Cl.[Ti+4] (some centres not stated)	> 25	> 25	> 25	–	> 25	> 25	> 25 µM	> 25 µM	> 25	> 25	> 25	> 25	> 25	> 25	> 25	> 25	> 25	> 25	> 25	–
O=C1c2ccccc2C(=O)c2c1ccc1c(=O)n(-c3ccccc3C(F)(F)F)nnc21	2.21	19.1	8.49	–	> 100	6.43	5.87 µM	–	17.9	–	1	1.28	–	2.57	2.66	–	3.52	2.36	2.38	–
OCc1ccc(N2CCc3cc(F)ccc3C2)cc1Cl	0.354	17.9	30.2	24	15.9	–	–	22.2 µM	14	21.2	0.0277	0.302	0.244	16.1	0.0933	3.98	3.85	–	–	3.29
CN(C)C=NC1CCC(C(C)(C)C)CC1 (configuration not stated)	51.1	32.3	31.8	–	44.8	59.8	41.3 µM	–	31.2	32.8	–	–	–	–	–	–	–	–	–	–
COc1cccc(/C=C/c2ccnc3ccccc23)c1OC	> 10	> 10	> 10	–	> 10	> 10	> 10 µM	> 10 µM	> 10	> 10	–	–	–	–	–	–	–	–	–	–
C[C@@H](NC(=O)c1ncnc(N)c1Cl)c1ncc(C(=O)Nc2cc(C(F)(F)F)c(Cl)cn2)s1	73.3	84.8	> 78.4	64.5	> 93.5	–	74.3 µM	49 µM	> 68.5	> 100	20.7	24.3	15.2	20.3	19.5	21.9	31.2	–	15.4	15.3
COc1ccc(Cl)cc1Nc1nc(C(F)(F)F)ccc1C(=O)N/N=C/c1cccnc1	> 100	75	> 100	–	> 100	> 100	> 100 µM	> 100 µM	> 100	> 100	0.521	5.22	2.28	5.12	2.4	1.42	2.47	2.98	3.49	–
CCCCCCCCCCSC(=O)NC	> 100	–	> 100	–	> 100	71.4	–	48.8 µM	68.4	54.8	–	–	–	–	–	–	–	–	–	–
COC1[C@H](NC(=O)OC(C)(C)C)C(=O)N1Cc1ccccc1 (some centres not stated)	> 100	> 100	> 100	–	> 100	> 100	> 100 µM	> 100 µM	> 100	> 100	–	–	–	–	–	–	–	–	–	–
CCCCCCCCCCCCCCCCc1c(C(=O)OC)nc(NN)[nH]c1=O	> 50	> 50	> 50	–	> 50	> 50	–	> 50 µM	> 50	> 50	–	–	–	–	–	–	–	–	–	–
